Several values for one entry are separate records, joined by “and”; a condition that tells them apart may be missing. Equal values may be shown once. Read-outs that look alike come from different tables or passages of the source. Peptide text beside a SMILES is read from it.
Tests used:
Type in all cases: in vivo, Sprague Dawley rats
[1] = Pharmacokinetics of repeated subcutaneous injection of F3 (10.0 mg/kg daily, 14 days); settings: for accumulation in plasma: after 14 days of repeated s.c. injection at 10.0 mg/kg; for CL/F: read-out: Cl_F_obs (clearance rate) (converted)
Method: The first day of F3 administration was recorded as day 1. At least 0.5 ml blood samples were obtained alternatively from 3M/3F rats at pre- and post-F3 injection time periods (0, 0.5, 1, 2, 4, 6, 8, and 24 hr).
(§1) The concentration of F3 in rat plasma was determined by liquid chromatography-tandem mass spectrometry, using the method established by Kanglong Huacheng Co., Ltd. The analyte was assayed by liquid chromatography coupled with the tandem mass spectrometry (LC-MS/MS) method. The LC-MS/MS system consisted of a Shimadzu HPLC system (Kyoto, Japan) and an LCMS-8060 instrument (serial no. 011105500332 AE). The following were the LC conditions: column, HALO ES-C18 2.7 µ C18 160A (50 × 2.1 mm); gradient elution at 0.5 mL/min with 5% acetonitrile in water containing 0.1% formic acid or 95% acetonitrile in water containing 0.1% formic acid; and injection volume of 10 µL. A multiple reaction monitoring (MRM) method was selected for quantitative analysis. For analyte and internal standard, the optimum transitions were 519.50 > 129.15 (five charges) and 649.15 > 120.10 (four charges), 393.20 > 373.25, and 237.15 > 194.15, respectively. The instrumental parameters were set as follows: nebulizing gas flow was 3 L/min; heating gas flow was 10 L/min; interface temperature was 300°C; DL temperature was 250°C; and heat block temperature was 400°C.
(§2) PK parameters were estimated by a noncompartmental model with the calculation model of “Linear Trapezoidal Linear Interpolation” using WinNonlin (Phoenix TM, version 8.1). If the plasma F3 was detected, the following pharmacokinetic parameters were measured and calculated: Cmax (maximum blood concentration), Tmax (peak time), T1/2 (elimination half-life), AUC (area under plasma concentration-time curve), Vz_F_obs (apparent distribution volume), Cl_F_obs (clearance rate), and MRTInf_obs (mean residence time).

SD rats [2] = experiment: Food intake and body weight gain in acute toxicity study; settings: single or repeated s.c. injection
Method: For 14 days, the body weight was measured before F3 administration on the first day of the experiment and once a week thereafter, with additional measurements on the day before and on the day of the planned autopsy. Food intake was recorded once a week. The rats were anesthetized by inhalation of 70% CO2/30% O2 before dissection, and blood samples were taken for hematology and biochemical analysis. The collected tissue was weighed and preserved for pathological examination.

[3] = Pharmacokinetics of single subcutaneous injection of F3 (1.0 mg/kg); settings: single s.c. 1.0 mg/kg, plasma, LC-MS/MS; for AUC(0-inf) / AUC(0-t) / Cmax / Tmax / half-life / CL/F / MRT: Sprague-Dawley, rat, sc; for CL/F: read-out: Cl_F_obs (clearance rate) (converted); for MRT: read-out: MRTInf_obs (mean residence time)
Method: A single subcutaneous injection of 1.0 mg/kg F3 was given to a total of 12 SD rats (6 females, 6 males). Before and after F3 administration, whole blood samples were collected at predetermined time intervals (0, 0.5, 1, 2, 4, 6, 8, 24, 48, 72, 96, 144, and 192 hr). At each time point, at least 0.5 ml blood samples were taken alternatively from 3M/3F rats.
as §1, §2

SD rats [4] = experiment: Histopathologic examination (H&E) of vital organs; settings: s.c. 10.0 mg/kg daily x14 d
From the text: After blood was collected at the predetermined time points, all rats were euthanized and subjected to a comprehensive general autopsy, which included a thorough examination of the external surface of the body, all foramen, cranial cavity, external surface of the brain, chest, abdomen, pelvic cavity, viscera, cervix, and genitalia. The adrenal gland, brain (brain, cerebellum, and brain stem), epididymis, heart, kidney, liver, ovary, spleen, testis, thymus, thyroid gland, and uterus were carefully collected, weighed, and documented before being kept in 10% neutral formalin buffer (10% NBF).
The H&E staining was followed as reported elsewhere. Following formalin fixation, the important tissues were dehydrated, stained with hematoxylin (about 15 minutes) and eosin (1–3 minutes), dehydrated again with gradient alcohol, clarified in xylene, and then examined and recorded under the microscope.

[5] = female SD rats, s.c. 10.0 mg/kg daily x14 d, 14th dose, plasma, LC-MS/MS
[6] = female, Sprague-Dawley, rat, plasma, sc, 10 mg/kg, female SD rats, s.c. 10.0 mg/kg daily x14 d, 1st dose, LC-MS/MS
[7] = female, Sprague-Dawley, rat, plasma, sc, 10 mg/kg, female SD rats, s.c. 10.0 mg/kg daily x14 d, 14th dose, LC-MS/MS
[8] = male, Sprague-Dawley, rat, plasma, sc, 10 mg/kg, male SD rats, s.c. 10.0 mg/kg daily x14 d, 1st dose, LC-MS/MS
[9] = male, Sprague-Dawley, rat, plasma, sc, 10 mg/kg, male SD rats, s.c. 10.0 mg/kg daily x14 d, 14th dose, LC-MS/MS

CC[C@H](C)[C@H](NC(=O)[C@H](CO)NC(=O)CNC(=O)[C@H](CC(C)C)NC(=O)[C@@H](NC(=O)CNC(=O)[C@H](Cc1ccccc1)NC(=O)[C@H](CC(C)C)NC(=O)CN)C(C)C)C(=O)N[C@@H](C)C(=O)N[C@@H](CCCCN)C(=O)N[C@@H](Cc1c[nH]cn1)C(=O)N[C@H](C(=O)N[C@@H](CC(C)C)C(=O)N1CCC[C@H]1C(=O)N[C@@H](Cc1c[nH]cn1)C(=O)N[C@H](C(=O)N[C@H](C(=O)N1CCC[C@H]1C(=O)N[C@H](C(=O)N[C@H](C(=O)N[C@@H](C)C(=O)N[C@@H](CCC(=O)O)C(=O)N[C@@H](CCCCN)C(=O)N[C@@H](CC(C)C)C(N)=O)[C@@H](C)CC)C(C)C)C(C)C)C(C)C)C(C)C [F3, Caerin 1.9] (H-GLFGVLGSIAKHVLPHVVPVIAEKL-NH2)
accumulation in plasma ([1]; SD rats, 10 mg/kg): no F3 accumulation
accumulation in plasma ([1]; SD rats, listed as Caerin 1.9, 10 mg/kg): no accumulation
Tmax ([1]; SD rats, s.c., over single 1.0 mg/kg and repeated 10.0 mg/kg groups): between half an hour and one hour
AUC_%Extrap_obs ([1]; female SD rats, s.c. 10.0 mg/kg daily x14 d, 1st dose, plasma, LC-MS/MS): 1.48%
T max ([1]; female SD rats, s.c. 10.0 mg/kg daily x14 d, 1st dose, plasma, LC-MS/MS, 10 mg/kg): 1 h and 1.00 h
AUC_%Extrap_obs [1, 5]: 0.658%
T max [1, 5]: 1.00 h
AUC(0-inf) ([1]; female, Sprague Dawley, rat, plasma, sc, 10 mg/kg, female SD rats, s.c. 10.0 mg/kg daily x14 d, 14th dose, LC-MS/MS): 1110 ng·h/mL
AUC(0-inf) [1, 6]: 751 ng·h/mL
AUC(0-t) [1, 6]: 740 ng·h/mL
Cmax [1, 6]: 256 ng/mL
half-life [1, 6]: 1.33 h
CL/F ([1]; female, Sprague-Dawley, rat, plasma, sc, 10 mg/kg, female SD rats, s.c. 10.0 mg/kg daily x14 d, 1st dose, plasma, LC-MS/MS): 222 mL/min/kg
MRT ([1]; female, Sprague-Dawley, rat, plasma, sc, 10 mg/kg, female SD rats, s.c. 10.0 mg/kg daily x14 d, 1st dose, plasma, LC-MS/MS, read-out: MRTInf_obs (mean residence time)): 2.96 h
AUC(0-t) [1, 7]: 1100 ng·h/mL
Cmax [1, 7]: 496 ng/mL
half-life [1, 7]: 1.03 h
CL/F ([1]; female, Sprague-Dawley, rat, plasma, sc, 10 mg/kg, female SD rats, s.c. 10.0 mg/kg daily x14 d, 14th dose, plasma, LC-MS/MS): 150 mL/min/kg
MRT at 14 days ([1]; female, Sprague-Dawley, rat, plasma, sc, 10 mg/kg, female SD rats, s.c. 10.0 mg/kg daily x14 d, 14th dose, plasma, LC-MS/MS, read-out: MRTInf_obs (mean residence time)): 1.91 h
AUC_%Extrap_obs ([1]; male SD rats, s.c. 10.0 mg/kg daily x14 d, 1st dose, plasma, LC-MS/MS): 0.807%
T max ([1]; male SD rats, s.c. 10.0 mg/kg daily x14 d, 1st dose, plasma, LC-MS/MS, 10 mg/kg): 1 h
AUC_%Extrap_obs ([1]; male SD rats, s.c. 10.0 mg/kg daily x14 d, 14th dose, plasma, LC-MS/MS): 0.365%
AUC(0-inf) [1, 8]: 1910 ng·h/mL
AUC(0-t) [1, 8]: 1890 ng·h/mL
Cmax [1, 8]: 591 ng/mL
half-life [1, 8]: 4.58 h
CL/F ([1]; male, Sprague-Dawley, rat, plasma, sc, 10 mg/kg, male SD rats, s.c. 10.0 mg/kg daily x14 d, 1st dose, plasma, LC-MS/MS): 87.5 mL/min/kg
Tmax ([1]; male, Sprague-Dawley, rat, plasma, sc, 10 mg/kg, male SD rats, s.c. 10.0 mg/kg daily x14 d, 1st dose, plasma, LC-MS/MS, read-out: T max): 1 h
AUC(0-inf) [1, 9]: 1270 ng·h/mL
AUC(0-t) [1, 9]: 1270 ng·h/mL
Cmax [1, 9]: 527 ng/mL
half-life [1, 9]: 0.894 h
CL/F ([1]; male, Sprague-Dawley, rat, plasma, sc, 10 mg/kg, male SD rats, s.c. 10.0 mg/kg daily x14 d, 14th dose, plasma, LC-MS/MS): 131 mL/min/kg
MRT at 14 days ([1]; male, Sprague-Dawley, rat, plasma, sc, 10 mg/kg, male SD rats, s.c. 10.0 mg/kg daily x14 d, 14th dose, plasma, LC-MS/MS, read-out: MRTInf_obs (mean residence time)): 2.06 h
Tmax ([1]; male, Sprague-Dawley, rat, plasma, sc, 10 mg/kg, male SD rats, s.c. 10.0 mg/kg daily x14 d, 14th dose, plasma, LC-MS/MS, read-out: T max): 0.5 h
effect on food intake, body weight, and weight change (SD rats [2]): no effect
AUC(0-inf) ([3]; female SD rats): 222 ng·h/mL
AUC(0-t) ([3]; female SD rats): 216 ng·h/mL
Cmax ([3]; female SD rats): 110 ng/mL
Tmax ([3]; female SD rats): 0.5 h
half-life ([3]; female SD rats): 0.677 h
CL/F ([3]; female SD rats): 75.1 mL/min/kg
MRT ([3]; female SD rats): 1.42 h
AUC(0-inf) ([3]; male SD rats): 686 ng·h/mL
AUC(0-t) ([3]; male SD rats): 661 ng·h/mL
Cmax ([3]; male SD rats): 256 ng/mL
Tmax ([3]; male SD rats): 1 h
half-life ([3]; male SD rats): 1.16 h
CL/F ([3]; male SD rats): 24.3 mL/min/kg
MRT ([3]; male SD rats): 2.05 h
AUC_%Extrap_obs ([3]; female SD rats): 2.88%
T max ([3]; female SD rats): 0.5 h
T max ([3]; male SD rats): 1 h
histopathologic examination of essential organs (SD rats [4]): no apparent abnormalities
